Data taken from patent US8748388B2, “Antitumoral compounds” (Pharma Mar, S.A., priority 2008, dated 2014).
Bridge positions count the residues as written; N and C are the ends. Square brackets hold non-standard residues; d marks the D form. Peptide text beside a SMILES is read from it. I, II: the chains in the order shown. * marks the point of attachment. Quinaldoyl(3-OH) = O=C(c1nc2ccccc2cc1O)*; NMeC = CN[C@@H](CS)C(=O)O; dDap = NC[C@@H](N)C(=O)O

What was measured:
[1] = tested on: MDA-MB-231; experiment: SRB colorimetric cytotoxicity assay, MDA-MB-231; assay type: cell-based, human; conditions: MDA-MB-231, 48 hours exposure; for CC50: read-out: LC50 (the source's name)
Excerpt: (§1) The aim of this assay is to evaluate the in vitro cytostatic (ability to delay or arrest tumor cell growth) or cytotoxic (ability to kill tumor cells) activity of the samples being tested.
(§2) A colorimetric type of assay, using sulforhodamine B (SRB) reaction has been adapted for a quantitative measurement of cell growth and viability (following the technique described by Skehan P et al. J. Natl. Cancer Inst. 1990, 82, 1107-1112).
(§3) This form of assay employs SBS-standard 96-well cell culture microplates (Faircloth et al. Methods in cell science, 1988, 11(4), 201-205; Mosmann et al. Journal of. Immunological. Methods, 1983, 65(1-2), 55-63). All the cell lines used in this study, derived from different types of human cancer, were obtained from the American Type Culture Collection (ATCC).
(§4) Cells were maintained in Dulbecco's Modified Eagle Medium (DMEM) supplemented with 10% Fetal Bovine Serum (FBS), 2 mM L-glutamine, 100 U/mL penicillin and 100 U/mL streptomycin at 37° C., 5% CO2 and 98% humidity. For the experiments, cells were harvested from subconfluent cultures using trypsinization and resuspended in fresh medium before counting and plating.
(§5) Cells were seeded in 96 well microtiter plates at 5×10^3 cells per well in aliquots of 150 μL, and allowed to attach to the plate surface for 18 hours in drug free medium. One control (untreated) plate of each cell line was fixed (as described below) and used for time zero reference value. Afterwards, test samples were added to the cultures in ten serial dilutions, in aliquots of 50 μL, ranging from 10 to 0.00262 μg/mL. After 48 hours exposure, the antitumor effect was estimated by the SRB method: Briefly, cells were washed twice with PBS, fixed for 15 min in 1% glutaraldehyde solution, rinsed twice in PBS, and stained in 0.4% SRB solution for 30 min at room temperature. Cells were then rinsed several times with 1% acetic acid solution and air-dried. SRB was then extracted in 10 mM trizma base solution and the absorbance measured in an automated spectrophotometric plate reader at 490 nm. Cell survival was expressed as percentage of control cell growth. The final effect of the sample being tested was estimated by applying the NCl algorithm (Boyd M R and Paull K D. Drug Dev. Res. 1995, 34, 91-104).
(§6) Using the mean±SD of triplicate cultures, a dose-response curve was automatically generated using nonlinear regression analysis. Three reference parameters were calculated (NCl algorithm) by automatic interpolation: GI50=concentration that produces 50% growth inhibition; TGI=total growth inhibition (cytostatic effect) and LC50=concentration that produces 50% net cell killing (cytotoxic effect).

[2] = tested on: A549; experiment: SRB colorimetric cytotoxicity assay, A549; assay type: cell-based, human; conditions: A549, 48 hours exposure; for CC50: read-out: LC50 (the source's name)
Excerpt: as §1, §2, §3, §4, §5, §6

[3] = tested on: HT29; experiment: SRB colorimetric cytotoxicity assay, HT29; assay type: cell-based, human; conditions: HT29, 48 hours exposure; for CC50: read-out: LC50 (the source's name)
Excerpt: as §1, §2, §3, §4, §5, §6

[4] = tested on: leukemia cell line L1210; conditions: Boger and Lee 2000; cited from earlier work

| Molecule | GI50 [1] | TGI [1] | CC50 [1] | GI50 [2] | TGI [2] | CC50 [2] | GI50 [3] | TGI [3] | CC50 [3] | cytotoxic activity compared with Triostin A [4] |
| --- | --- | --- | --- | --- | --- | --- | --- | --- | --- | --- |
| CSC[C@H]1C(=O)NC[C@@H](NC(=O)c2nc3ccccc3cc2O)C(=O)NCC(=O)N(C)[C@H]2CSSC[C@@H](C(=O)N1C)N(C)C(=O)CNC(=O)[C@H](NC(=O)c1nc3ccccc3cc1O)CNC(=O)[C@H](CSC)N(C)C2=O [Azathiocoraline] (I: {Quinaldoyl(3-OH)}-[dDap]G[NMeC][NMeC](Me) / II: {Quinaldoyl(3-OH)}-[dDap]G[NMeC][NMeC](Me); amide I:1-II:C, I:C-II:1; disulfide I:3-II:3) | 2140 nM | >8.90E−06 Molar | > 8900 nM | 3740 nM | >8.90E−06 Molar | > 8900 nM | 3120 nM | >8.90E−06 Molar | > 8900 nM | – |
| CSC[C@H]1C(=O)N(C)C[C@@H](NC(=O)c2nc3ccccc3cc2O)C(=O)NCC(=O)N(C)[C@H]2CSSC[C@@H](C(=O)N1C)N(C)C(=O)CNC(=O)[C@H](NC(=O)c1nc3ccccc3cc1O)CN(C)C(=O)[C@H](CSC)N(C)C2=O [Compound 2, {[3-HQA-D-Dap(Me&^1)-Gly-NMeCys(&^2)—NMe-Cys(Me)&^3][3-HQA-D-Dap(Me&^3)-Gly-NMeCys(&^2)—NMe-Cys(Me)&^1]] | 4.08 nM | 4.26E−08 Molar | 373 nM | 3.39 nM | 2.00E−08 Molar | 165 nM | 20.8 nM | 1.13E−07 Molar | 747 nM | – |
| Azatriostin A | – | – | – | – | – | – | – | – | – | two orders of magnitude less active |
